Our source for the Kd, IC50 and EC50 values is patent US20240139185A1, “COMPOUNDS THAT PARTICIPATE IN COOPERATIVE BINDING AND USES THEREOF” (Revolution Medicines, Inc., priority 2018, published 2024).

As usually defined, the EC50 is the concentration at which the effect is half-maximal.

SMILES strings stand for the structures.

In one assay the target is cyclophilin A (CYPA) (Homo sapiens, UniProt P62937). Put plainly: CYPA-compound binary complex formation by SPR. The following applies: read-out: CYPA Binding Affinity. As to the method:
In order to determine the affinity of compounds of the invention for cyclophilin A (CYPA), we employed surface plasmon resonance binding analysis using the following reagents, instruments and protocol as supplied by the instrument manufacturer.
Reagents and Instrument • 1. Instrument: Biacore S200 (GE Healthcare Life Sciences) • 2. Running buffer: 1×HBS-P+ (1×HBS supplemented with 0.05% Tween20), pH7.4, and 2% DMSO. • 3. Ligand: CypA-Avi • 4. Analyte: Serial dilution of WDB compounds from 50 μM to 0 μM, 2-fold dilution, 10 points (10 mM stock concentration). • 5. Sensor kit: Biotin CAPture Kit (BR28-9202-34, GE Healthcare Life Sciences) • 6. Regeneration buffer: 1 volume of 1 M NaOH and 3 volumes of 8 M guanidine hydrochloride (supplied with CAPture Kit, BR28-9202-34, GE Healthcare Life Sciences)
Experimental Procedure • 1. Capture of CAPreagent: 2 μl/min for 60 seconds. • 2. Immobilization of ligand CypA: Use Fc1 as the reference cell; immobilize CypA at 4 μg/ml using 5 μl/min flowrate on Fc2 (60s), Fc3 (80s) and Fc4 (80s), respectively. • 3. Binding of analytes: Inject WDB compound dilutions sequentially at 50 μl/min for association of 60 seconds. And then let it dissociates in buffer at 50 μl/min for 60 seconds. • 4. Regeneration: 2 injections of regeneration buffer at 30 μl/min for 60 seconds to regenerate the chip surface. • 5. Solvent correction: Run solvent correction at beginning and the end of the run. If run more than 6 compounds, add additional solvent correction every 6 compounds. • 6. Data fitting with built-in Biacore Evaluation Software: Steady-state fitting.
(Surface plasmon resonance follows binding to a sensor surface in real time, without labels.)

The subject of the next assay is pERK in H358 cells. Description: pERK inhibition in H358 cells. In kind it is cell-based, human. The following applies: 4 hours treatment, read-out: Cellular pERK inhibition. Here is the method:
H358 cells (5500 cells) derived from a human lung cancer were plated in a 96 well plate in media (100 uL, RPMI with 10% FBS). After 24 hours, cells were treated for 4 hours with compound or DMSO. Cells were washed twice with room temperature TBS (200 uL) and fixed for 20 minutes with 4% paraformaldehyde diluted with TBS (150 uL). Cells were washed four times for five minutes with 0.1% TritonX/TBS (150 uL) to permeabilize the membrane. Cells were incubated with TBS blocking buffer (100 uL) at room temperature for 60 minutes. Primary antibody (Phospho-p44/42 MAPK (Erk1/2) (Thr202/Tyr204) (D13.14.4E) XP® Rabbit mAb #4370, Cell Signaling Technology; 1:200) was added, and the cells were incubated overnight at 4 C. The cells were washed four times for five minutes with 0.1% Tween 20/TBS (150 uL). Secondary antibody (IRDye® 800CW Goat-Anti-Rabbit IgG, Li-Cor Biosciences; 1:1000) and DRAQ5™ (Invitrogen; 1:2000) was added, and the cells were incubated for 1 hour at room temperature. The cells were washed four times for five minutes with 0.1% Tween 20/TBS (150 uL) and scanned using the LICOR (700 and 800 nm).

In assay [1] the target is T1, BRAF-GTP-KRAS-G12C complex (Homo sapiens, UniProt P01116+P62937, G12C).
T1 construct: 50 nM of His6-KRas G12C-GTP (1-169); 500 nM of tagless CypA (1-165)
Description: KRAS-BRAF complex disruption through competition with CYPA-compound by TR-FRET. The following applies: biochemical BRAF-KRAS G12C-GTP disruption assay EC50, with CYPA. As to the method: In this example, TR-FRET was used to measure the compound-facilitated disruption of a KRAS-BRAF complex. A mixture of tagless Cyclophilin A, His6-KRAS G12C-GMP-PNP, and GST-BRAF RAS binding domain was added to a 384-well assay plate containing compounds of the invention and incubated for 3 hours. A mixture of Anti-His Eu-W1024 and anti-GST allophycocyanin was then added and the reaction was incubated for an additional 1.5 hours. TR-FRET signal was read on an EnVision microplate reader (Perkin Elmer, Ex 320 nm, Em 665/615 nm). Compounds that facilitate disruption of a KRAS_BRAF complex were identified as those eliciting a decrease in the TR-FRET ratio relative to DMSO control wells. To determine the presenter-dependence of the compound-mediated KRAS-BRAF complex disruption, Cyclophilin A was left out of the initial incubation (see Table 5). To determine G12C specificity of the compound-mediated KRAS-BRAF complex disruption, wild-type KRAS was used instead of G12C KRAS (see Table 5).
Reagents and Instrument • Tagless CYPA; 519 μM in PBS buffer, pH 7.4 • GST BRAF; 110 μM in PBS buffer, pH 7.4 • His6-KRASG12C-GMP-PNP; 50 μM in PBS buffer, pH 7.4 • His6-KRASWT-GMP-PNP; 40 μM in PBS buffer, pH 7.4 • Anti-His Eu-W1024 (LANCE® Eu-W1024; Perkin Elmer) • Anti-GST allophycocyanin (Anti-GST IgG conjugated to SureLight®-Allophycocyanin; Perkin Elmer; Product Number AD0059G) • Test compounds, 10 mM in 100% DMSO • EnVision (Perkin Elmer) • Combi MultiDrop liquid dispenser with 8-channel small volume cassette • 384-well ProxiPlate (black)
Experimental Protocol • 1. Use Mosquito to dispense 100 nL/well of compounds (varying concentration in […]) into 384-well black ProxiPlate to make assay-ready-plate (ARP). • 2. Make assay buffer containing 25 mM Hepes pH 7.3, 100 mM NaCl, 5 mM MgCl2, 0.05% BSA, and 0.002% Tween-20. • 3. Make PRE-MIX A: delivers final concentrations of 50 nM of His6-KRas G12C-GTP (1-169) and 500 nM of tagless CypA (1-165) in assay buffer. • a. For presenter dependence experiments, omit addition of tagless CypA • b. For G12C/wt specificity experiments, substitute His6-KRas WT-GTP (1-169) for His6-KRas G12C-GTP (1-169) • 4. Use MultiDrop Combi to dispense PRE-MIX A into ARP, 7 μl/well. Incubate 3 hr at room temperature. • 5. Make PRE-MIX B: delivers final concentrations of 10 nM of anti-His Eu-W1024 and 50 nM of anti-GST APC. • 6. Use MultiDrop Combi to dispense PRE-MIX B into ARP, 3 μl/well. Shake briefly on Combi and incubate 1.5 hr at room temperature. • 7. Read on EnVision (Ex: 320 nm; Em1: 615 nm; Em2: 665 nm). • 8. Data is processed using Dotmatics. Curves are fit using a 4-parameter non-linear fit to determine the EC50 value for formation of the ternary complex.

Regarding `CC1COC(=O)[C@@H]2CCCN(N2)C(=O)[C@@H](NC(=O)[C@H](C(C)C)N(C)C(=O)C2CN(C(=O)CCl)C2)Cc2cc(O)cc(c2)-c2ccc3c(c2)c(cn3CC2COC2)C1` (single isomer, unassigned) [Compound 227], at cyclophilin A (CYPA), the Kd was in the range of 5 to 15 µM. Also, the IC50 in the assay on pERK in H358 cells is more than 10 µM.
Taken in the same sequence, the figures for `CC1COC(=O)[C@@H]2CCCN(N2)C(=O)[C@@H](NC(=O)[C@H](C(C)C)N(C)C(=O)C2CN(C(=O)CCl)C2)Cc2cc(O)cc(c2)-c2ccc3c(c2)c(cn3CC2COC2)C1` (single isomer, unassigned) [Compound 228] were not above 5 µM and 1 to 10 µM.
Taken in the same sequence, the figures for `CC1COC(=O)C2CCCN(N2)C(=O)C(NC(=O)C(C(C)C)N(C)C(=O)C2CN(C(=O)CCl)C2)Cc2cc(O)cc(c2)-c2ccc3c(-c4ccccc4C#N)cn(c3c2)C1` [Compound 5, 1-(2-chloroacetyl)-N-((2S)-1-(((6^3S,4S,10S)-1^3-(2-cyanophenyl)-2^5-hydroxy-10-methyl-5,7-dioxo-6^1,6^2,6^3,6^4,6^5,6^6-hexahydro-1^1H-8-oxa-1(6,1)-indola-6(1,3)-pyridazina-2(1,3)-benzenacycloundecaphane-4-yl)amino)-3-methyl-1-oxobutan-2-yl)-N-methylazetidine-3-carboxamide] were not above 5 µM and not above 1 µM.
`CC(C)[C@@H](C(=O)N[C@H]1Cc2cc(O)cc(c2)-c2ccc3c(-c4cccnc4)cn(c3c2)C[C@H](C)COC(=O)[C@@H]2CCCN(N2)C1=O)N(C)C(=O)C1CN(C(=O)CCl)C1` [Compound 51] showed an EC50 in assay [1] not above 0.5 µM. Besides, the IC50 with pERK in H358 cells was in the range of 1 to 10 µM.
Consider `CC(C)[C@@H](C(=O)N[C@H]1Cc2cc(O)cc(c2)-c2ccc3c(Cc4cccnc4)cn(c3c2)C[C@H](C)COC(=O)[C@@H]2CCCN(N2)C1=O)N(C)C(=O)C1CN(C(=O)CCl)C1` [Compound 70], for which the EC50 in assay [1] is not above 0.5 µM. In the assay on pERK in H358 cells, the IC50 is more than 10 µM.
Consider `CC1=C(C)C(=O)N(CC(=O)N(C)[C@H](C(=O)N[C@H]2Cc3cc(O)cc(c3)-c3ccc4nc(C)n(c4c3)CC(C)(C)COC(=O)[C@@H]3CCCN(N3)C2=O)C(C)C)C1=O` [Compound 171], for which the Kd at cyclophilin A (CYPA) was in the range of 5 to 15 µM. The molecule further came in with an EC50 in assay [1] of 0.5 to 5 µM.
For `C=CC(=O)N1CCN([C@H](C(=O)N[C@H]2Cc3cc(O)cc(c3)-c3ccc4c(=O)n(C)n(c4c3)CCCOC(=O)[C@@H]3CCCN(N3)C2=O)C(C)C)C1=O` [Compound 174], in that order: not above 5 µM and more than 5 µM.
Turning to `C=CC(=O)N1CCN([C@H](C(=O)N[C@H]2Cc3cc(O)cc(c3)-c3ccc4c(C5CCOCC5)cn(c4c3)CCCOC(=O)[C@@H]3CCCN(N3)C2=O)C(C)C)C1=O` [Compound 229, (2S)-2-(3-acryloyl-2-oxoimidazolidin-1-yl)-N-((6^3S,4S)-2^5-hydroxy-5,7-dioxo-1^3-(tetrahydro-2H-pyran-4-yl)-6^1,6^2,6^3,6^4,6^5,6^6-hexahydro-1^1H-8-oxa-1(6,1)-indola-6(1,3)-pyridazina-2(1,3)-benzenacycloundecaphane-4-yl)-3-methylbutanamide], the Kd at cyclophilin A (CYPA) is not above 5 µM. In addition, the IC50 in the assay on pERK in H358 cells was more than 10 µM.
With `CC(C)[C@@H](C(=O)N[C@H]1Cc2cc(N)cc(c2)-c2ccc3c(C#N)cn(c3c2)CC(C)(C)COC(=O)[C@@H]2CCCN(N2)C1=O)N(C)C(=O)C1CN(C(=O)CCl)C1` [Compound 230, N-((2S)-1-(((6^3S,4S)-2^5-amino-1^3-cyano-10,10-dimethyl-5,7-dioxo-6^1,6^2,6^3,6^4,6^5,6^6-hexahydro-1^1H-8-oxa-1(6,1)-indola-6(1,3)-pyridazina-2(1,3)-benzenacycloundecaphane-4-yl)amino)-3-methyl-1-oxobutan-2-yl)-1-(2-chloroacetyl)-N-methylazetidine-3-carboxamide], the EC50 in assay [1] fell in the range of 0.5 to 5 µM. For the same molecule, the IC50 in the assay with pERK in H358 cells was more than 10 µM.
For `C=CC(=O)N1CC(C(=O)N(C)[C@H](C(=O)N[C@H]2Cc3cc(O)cc(c3)-c3ccc4c(C5CCN(C)CC5)nn(c4c3)CC(C)(C)COC(=O)[C@@H]3CCCN(N3)C2=O)C(C)C)C1` [Compound 232, 1-acryloyl-N-((2S)-1-(((6^3S,4S)-2^5-hydroxy-10,10-dimethyl-1^3-(1-methylpiperidin-4-yl)-5,7-dioxo-6^1,6^2,6^3,6^4,6^5,6^6-hexahydro-1^1H-8-oxa-1(6,1)-indazola-6(1,3)-pyridazina-2(1,3)-benzenacycloundecaphane-4-yl)amino)-3-methyl-1-oxobutan-2-yl)-N-methylazetidine-3-carboxamide], in that order: 0.5 to 5 µM and more than 10 µM.
For `C#Cc1nn2c3cc(ccc13)-c1cc(O)cc(c1)C[C@H](NC(=O)[C@H](C(C)C)N(C)C(=O)C1CN(C(=O)CCl)C1)C(=O)N1CCC[C@H](N1)C(=O)OCC(C)(C)C2` [Compound 233, 1-(2-chloroacetyl)-N-((2S)-1-(((6^3S,4S)-1^3-ethynyl-2^5-hydroxy-10,10-dimethyl-5,7-dioxo-6^1,6^2,6^3,6^4,6^5,6^6-hexahydro-1^1H-8-oxa-1(6,1)-indazola-6(1,3)-pyridazina-2(1,3)-benzenacycloundecaphane-4-yl)amino)-3-methyl-1-oxobutan-2-yl)-N-methylazetidine-3-carboxamide], in that order: not above 0.5 µM and more than 10 µM.
Consider `C=CC(=O)N1CCC(C(=O)N(C)C(C(=O)NC2Cc3cc(O)cc(c3)-c3ccc4c(c3)c(cn4C(C)(C)C#N)CC(C)(C)COC(=O)C3CCCN(N3)C2=O)C2CCCCC2)C1` (stereo not drawn) [Compound 396], for which, in assay [1], the EC50 is more than 5 µM. In addition, the IC50 in the assay with pERK in H358 cells lay within 1 to 10 µM.
